Measurements from US7018989B2, “Chemical compounds” (University College Cardiff Consultants, LTD, priority 1995, dated 2006).
Read-outs that look alike come from different tables or passages of the source.

Legend:
C8166 cells = test: Toxicity in C8166 cells (MTT-Formazen); format: cell-based; settings: Table 3
Procedure: (§1) C8166 cells. Cells were grown in RPMI 1640 with 10% calf serum. 4×10^4 cells per microtiter plate well were mixed with 5-fold dilutions of compound prior to addition of 10 CCID50 units of III-B strain of HIV-1 and incubated for 5–7 days (Betbeder et al. Antiviral Chem. Chemother. 1, 241–247, 1990). Formation of syncytia was examined from 2 days post-infection. Culture fluid was collected at 5–7 days and gp120 antigen production measured by ELISA (Mahmood and Hay, J. Immunol. Meth., 151, 9–13, 1992). […] Cell viability of infected and uninfected cells were assessed by the MTT-Formazen method (Pauwels et al. J. Virol. Meth. 20, 309–321, 1988).
(§2) Each assay was carried out in duplicate, on at least two separate occasions, and data quoted are the average of each separate assay.

III-B strain of HIV-1 = test: microbe, parasite or virus in culture; format: cell-based
Procedure: as §1, §2

HIV-2 [1] = test: Inhibition of HIV-2 in CEM cells (giant cell formation); format: cell-based
Procedure: (§3) Cells were infected with HIV-1 as previously described [Balzarini et al. AIDS (1991), 5, 21–28]. Briefly, 5×10^5 cells per milliliter were infected with HIV-1 or HIV-2 at 100 CCID50 (50% cell culture infective dose) per milliliter of cell suspension. Then 100 μL of the infected cell suspension was transferred to microtiter plate wells and mixed with 100 μL of the appropriate dilutions of the test compounds. After 4 days giant cell formation was recorded microscopically in the HIV-infected cell cultures [CEM], and after 5 days the number of viable cells was determined by trypan blue staining of the HIV-infected cell cultures [MT4].
(§4) The data columns are, in order: • HIV1 MT4: EC50 in μM for inhibition of HIV-1 in MT4 cells. • HIV2 MT4: EC50 in μM for inhibition of HIV-2 in MT4 cells. • CC50 MT4: CC50 in μM for toxicity to MT-4 cells. • HIV1 CEM: EC50 in μM for inhibition of HIV-1 in CEM cells. • HIV2 CEM: EC50 in μM for inhibition of HIV-2 in CEM cells. • HIV2 CEM-TK-: EC50 in μM for inhibition of HIV-2 in CEM/TK^− cells. • CC50 CEM: CC50 in μM for toxicity to CEM cells. • EC50 MSV: EC50 in μM for inhibition of MSV • MCC MSV: Minimum cytotoxic concentration in MSV assay

HIV-1 = test: microbe, parasite or virus in culture; settings: read-out: HIV1 CEM: EC50 for inhibition of HIV-1 in CEM cells
Procedure: as §3, §4

HIV-2 [2] = test: Inhibition of HIV-2 in CEM/TK- cells; format: cell-based
Procedure: as §3, §4

CEM cells = test: Toxicity to CEM cells; format: cell-based, human
Procedure: as §3, §4

MSV = test: Inhibition of MSV (in vitro); format: cell-based, Moloney Sarcoma Virus
Text: as §4

[3] = Minimum cytotoxic concentration in MSV assay; format: cell-based
Text: as §4, with “CEM/TK^-” for “CEM/TK^−”, “[…]:” for “MSV • MCC MSV:”

[4] = HIV1 in C8166 cells, Table 3, read-out: Activity EC50
[5] = HIV2, Table 2, read-out: EC50 CEM TK^−
[6] = Table 6, mean of two or more repeat experiments, read-out: HIV2 CEM: EC50 for inhibition of HIV-2 in CEM cells
[7] = Table 6, mean of two or more repeat experiments
[8] = Table 6, mean of two or more repeat experiments, read-out: HIV2 CEM-TK-: EC50 for inhibition of HIV-2 in CEM/TK^− cells
[9] = CEM cells, HIV-2, read-out: HIV2 CEM: EC50 for inhibition of HIV-2 in CEM cells
[10] = CEM/TK- cells, HIV-2, read-out: HIV2 CEM-TK-: EC50 for inhibition of HIV-2 in CEM/TK- cells

SMILES | EC50 (HIV-2 [1]; [6]) [nM] | EC50 (HIV-1; [7]) [nM] | EC50 (HIV-2 [2]; [8]) [µM] | CC50 (CEM cells; [7]) [µM] | EC50 (MSV; Table 6) [µM] | MCC MSV: Minimum cytotoxic concentration in MSV assay ([3]; Table 6) | also measured
COC(=O)C(C)NP(=O)(OCC1C=CC(n2cc(C)c(=O)[nH]c2=O)O1)Oc1ccc(F)cc1 (stereo not drawn) [Compound 327, 2′,3′-dideoxy-2′,3′-didehydrothymidine 5′-(p-fluorophenylmethoxyalaninyl) phosphoramidate] | – | – | – | – | – | – | CC50 (C8166 cells): 200 µM; Selectivity CC50/EC50 × 10^3 (III-B strain of HIV-1): 62.5 × 10^3; EC50 (III-B strain of HIV-1; [4]): 3.2 nM
Cc1cn(C2C=CC(COP(=O)(NC(C)C(=O)OCc3ccccc3)Oc3ccccc3)O2)c(=O)[nH]c1=O (stereo not drawn) [Compound 730, 2′,3′-dideoxy-2′,3′-didehydrothymidine-5′-(phenyl N-benzyloxyalaninyl) phosphoramidate] | 16 | 16 | 0.06 | – | – | – | CC50 (C8166 cells): 400 µM; EC50 (III-B strain of HIV-1; HIV1 in C8166, Table 2, read-out: EC50 C8166): 0.8 nM; EC50 (III-B strain of HIV-1; [4]): 0.8 nM; EC50 (HIV-2 [1]; [5]): 16 nM; EC50 (HIV-2 [2]; [5]): 0.06 µM
Cc1cn(C2C=CC(COP(=O)(Oc3ccc(Br)cc3Br)N(C)C(C)C(=O)O)O2)c(=O)[nH]c1=O (stereo not drawn) [Compound 776, 2′,3′-dideoxy-2′,3′-didehydrothymidine-5′-(2,4-dibromophenyl N-methylalaninyl) phosphoramidate] | 55 | 40 | 0.025 | 16 | – | – | CC50 (C8166 cells): 100 µM; Selectivity CC50/EC50 × 10^3 (III-B strain of HIV-1): 125 × 10^3; EC50 (III-B strain of HIV-1; [4]): 0.8 nM
CCOC(=O)CCNP(=O)(OCC1C=CC(n2cc(C)c(=O)[nH]c2=O)O1)Oc1ccccc1 (stereo not drawn) [Compound 950] | ≥ 250000 | 250000 | > 250 | > 250 | > 100 | >100 | –
COC(=O)COP(=O)(OCC1C=CC(n2cc(C)c(=O)[nH]c2=O)O1)Oc1ccccc1 (stereo not drawn) [Compound 980] | 50000 | 27500 | > 250 | > 250 | > 100 | >100 | –
CCOC(=O)COP(=O)(OCC1C=CC(n2cc(C)c(=O)[nH]c2=O)O1)Oc1ccccc1 (stereo not drawn) [Compound 981] | 12500 | 12500 | 150 | ≥ 250 | > 100 | >100 | –
COC(=O)C(OP(=O)(OCC1C=CC(n2cc(C)c(=O)[nH]c2=O)O1)Oc1ccccc1)c1ccccc1 (stereo not drawn) [Compound 982] | 650 | 1700 | 15 | 94 | 14 | >100 | –
COC(=O)CC(NP(=O)(OCC1C=CC(n2cc(C)c(=O)[nH]c2=O)O1)Oc1ccccc1)C(=O)OC (stereo not drawn) [Compound 1078] | 650 | 550 | 0.33 | 209 | 31.4 | >100 | –
Cc1cn(C2C=CC(COP(=O)(O)NC(CC(=O)O)C(=O)O)O2)c(=O)[nH]c1=O (stereo not drawn) [Compound 1079] | 2500 | 1600 | 70 | ≥ 250 | 9.3 | >100 | –
COC(=O)CCC(NP(=O)(OCC1C=CC(n2cc(C)c(=O)[nH]c2=O)O1)Oc1ccccc1)C(=O)OC (stereo not drawn) [Compound 1081] | 5330 | 8000 | 16 | ≥ 250 | 88.8 | >100 | –
Cc1cn(C2C=CC(COP(=O)(O)NC(CCC(=O)O)C(=O)O)O2)c(=O)[nH]c1=O (stereo not drawn) [Compound 1083] | 5500 | 8500 | > 250 | ≥ 250 | 54.6 | >100 | –
COC(=O)C(C)NP(=O)(OC[C@@H]1CC[C@H](n2cnc3c(N)ncnc32)O1)Oc1ccccc1 (stereo partly drawn) [Compound 1093, 2′,3′-dideoxy Adenosine 5′-(phenylmethoxyalaninyl) phosphoramidate] | – | – | – | – | – | – | EC50 (MSV; MSV): 1.95 µM; EC50 (HIV-2 [1]; [9]): 35 nM; EC50 (HIV-1; CEM cells, HIV-1): 16 nM; CC50 (CEM cells; CEM cells): 2.57 µM; MCC MSV: Minimum cytotoxic concentration in MSV assay ([3]; MSV assay): >20; EC50 (HIV-2 [2]; [10]): 0.055 µM
Cc1cn(C2C=CC(COP(=O)(O)N[C@H](C)C(=O)O)O2)c(=O)[nH]c1=O (stereo partly drawn) [Compound 1095] | 1600 | 1300 | 10 | > 250 | 0.42 | >100 | –
COC(=O)C(C)NP(=O)(O)OCC1C=CC(n2cc(C)c(=O)[nH]c2=O)O1 (stereo not drawn) [Compound 1129] | 4500 | 2000 | 50 | > 250 | 47.4 | >100 | –
Cc1cn(C2C=CC(COP(=O)(O)O)O2)c(=O)[nH]c1=O (stereo not drawn) [Compound 1131] | 600 | 400 | 50 | ≥ 250 | 6.7 | >100 | –
CCOC(=O)CN(C)P(=O)(OC[C@@H]1C=C[C@H](n2cc(C)c(=O)[nH]c2=O)O1)Oc1ccccc1 (stereo partly drawn) [Compound 1133, 2′,3′-dideoxy-2′,3′-didehydrothymidine 5′-(phenylethoxysarcosinyl phosphate)] | 87500 | 75000 | > 250 | ≥ 250 | > 100 | >100 | –
COP(=O)(NC(C)C(=O)OCc1ccccc1)OCC1C=CC(n2cc(C)c(=O)[nH]c2=O)O1 (stereo not drawn) [Compound 1135] | 15000 | 10000 | 17.5 | > 250 | > 100 | >100 | –
Cc1cn(C2C=CC(COP(=O)(O)NC(C)C(=O)OCc3ccccc3)O2)c(=O)[nH]c1=O (stereo not drawn) [Compound 1137] | 1600 | 950 | 8 | ≥ 250 | 15.7 | >100 | –
CSCC[C@H](NP(=O)(O)OC[C@@H]1C=C[C@H](n2cc(C)c(=O)[nH]c2=O)O1)C(=O)O [Compound 1156, 2′,3′-dideoxy-2′,3′-didehydrothymidine 5′-(methioninyl phosphate)] | 700 | 1270 | 50 | > 250 | 16.2 | >100 | –
Nc1ncnc2c1ncn2C1CCC(CO)O1 (stereo not drawn) [Cpd 1069] | – | – | – | – | – | – | EC50 (MSV; MSV): 24.3 µM; EC50 (HIV-2 [1]; [9]): 8000 nM; EC50 (HIV-1; CEM cells, HIV-1): 4000 nM; CC50 (CEM cells; CEM cells): > 250 µM; MCC MSV: Minimum cytotoxic concentration in MSV assay ([3]; MSV assay): >100; EC50 (HIV-2 [2]; [10]): 17.5 µM
Cc1cn(C2CC(N=[N+]=[N-])C(COP(=O)(O)NC(C)C(=O)O)O2)c(=O)[nH]c1=O (stereo not drawn) [Cpd 1071] | – | – | – | – | – | – | EC50 (MSV; MSV): > 250 µM; EC50 (HIV-2 [1]; [9]): 10000 nM; EC50 (HIV-1; CEM cells, HIV-1): 115000 nM; CC50 (CEM cells; CEM cells): > 250 µM; MCC MSV: Minimum cytotoxic concentration in MSV assay ([3]; MSV assay): >100; EC50 (HIV-2 [2]; [10]): 250 µM
